In ChEMBL document CHEMBL4359842 (J Med Chem, 2019):
pIC50: −log10 of the molar value. Calls of active or inactive are those of the source. The rule behind the calls is not given here.

Legend:
Mus musculus [1] = assay: Improvement in spatial memory impairment in ip dosed APPswe/PS1dE9 double mutant-transgenic mouse model assessed as decrease in area occupied by diffused plaque in cortex administered once daily for 12 weeks measured post-last dose by thioflavin S staining-based fluorescence microscopic analysis; format: functional, organism-based
[2] = molecular target: Mitogen-activated protein kinase 10 (Homo sapiens, UniProt P53779); assay: Inhibition of recombinant human full-length JNK3 at 10 uM using ATF2 as substrate measured after 40 mins in presence of [gamma33P]ATP by scintillation counting analysis relative to control
Mus musculus [3] = assay: In vivo inhibition of JNK in APPswe/PS1dE9 double mutant-transgenic mouse model assessed as reduction in APP phosphorylation at Thr668 residue in cortex at 30 mg/kg, ip administered once daily for 12 weeks measured post-last dose by Western blot analysis; format: functional, organism-based
[4] = Cmax in APPswe/PS1dE9 double mutant-transgenic mouse at 30 mg/kg, ip administered as single dose by LC-MS/MS analysis; format: ADME, organism-based; design: dose 30 mg/kg, route intraperitoneal; conditions: in vivo
[5] = Terminal half life in APPswe/PS1dE9 double mutant-transgenic mouse at 30 mg/kg, ip administered as single dose by LC-MS/MS analysis; format: ADME, organism-based; conditions: in vivo, read-out: beta t1/2 (converted)
[6] = Primary phase half life in APPswe/PS1dE9 double mutant-transgenic mouse at 3 mg/kg, iv administered as single dose by LC-MS/MS analysis; format: ADME, organism-based; conditions: in vivo, read-out: alphat1/2 (converted)
[7] = Plasma concentration in APPswe/PS1dE9 double mutant-transgenic mouse at 30 mg/kg, ip administered as single dose measured after 0.5 hrs by LC-MS/MS analysis; format: ADME, organism-based
[8] = Tmax in APPswe/PS1dE9 double mutant-transgenic mouse at 30 mg/kg, ip administered as single dose by LC-MS/MS analysis; format: ADME, organism-based; conditions: in vivo
[9] = Bioavailability in APPswe/PS1dE9 double mutant-transgenic mouse at 30 mg/kg, ip administered as single dose by LC-MS/MS analysis; format: ADME, organism-based; conditions: in vivo
[10] = Ratio of drug level in APPswe/PS1dE9 double mutant-transgenic mouse brain to plasma at 30 mg/kg, ip administered as single dose measured after 0.5 hrs by LC-MS/MS analysis; format: ADME, organism-based; conditions: read-out: BPR
[11] = AUC in APPswe/PS1dE9 double mutant-transgenic mouse at 3 mg/kg, iv administered as single dose by LC-MS/MS analysis; format: ADME, organism-based; conditions: in vivo
Mus musculus [12] = assay: In vivo inhibition of […] phosphorylation in hippocampus of APPswe/PS1dE9 double mutant-transgenic mouse model at 30 mg/kg, ip administered once daily for 12 weeks measured post-last dose by Western blot analysis; format: functional, organism-based
Mus musculus [13] = assay: Improvement in spatial memory impairment in APPswe/PS1dE9 double mutant-transgenic mouse model assessed as decrease in exploration distance at 15 to 30 mg/kg, ip administered once daily for 12 weeks measured 24 hrs after training trial by morris water maze test; format: functional, organism-based
[14] = Mean residence time in APPswe/PS1dE9 double mutant-transgenic mouse at 30 mg/kg, ip administered as single dose by LC-MS/MS analysis; format: ADME, organism-based; conditions: in vivo
[15] = Toxicity in APPswe/PS1dE9 double mutant-transgenic mouse model assessed as effect on time to reach target quadrant at 15 to 30 mg/kg, ip administered once daily for 12 weeks measured 48 hrs after training trial by morris water maze test; format: organism-based; conditions: in vivo
[16] = Mean residence time in APPswe/PS1dE9 double mutant-transgenic mouse at 3 mg/kg, iv administered as single dose by LC-MS/MS analysis; format: ADME, organism-based; conditions: in vivo
[17] = Drug level in APPswe/PS1dE9 double mutant-transgenic mouse brain at 30 mg/kg, ip administered as single dose measured after 8 hrs by LC-MS/MS analysis; format: ADME, organism-based; conditions: read-out: Drug uptake
Mus musculus [18] = species on record: Mus musculus; conditions: 15 to 30 mg/kg
Description: In vivo inhibition of JNK in APPswe/PS1dE9 double mutant-transgenic mouse model assessed as increase in transformation of sAPPbeta to sAPPalpha by measuring reduction in sAPPbeta level at 15 to 30 mg/kg, ip administered once daily for 12 weeks measured post-last dose by Western blot analysis

Mus musculus [19] = assay: In vivo inhibition of JNK in APPswe/PS1dE9 double mutant-transgenic mouse model assessed as reduction in Tau phosphorylation at Ser235 residue in cortex at 30 mg/kg, ip administered once daily for 12 weeks measured post-last dose by Western blot analysis; format: functional, organism-based
[20] = Drug level in APPswe/PS1dE9 double mutant-transgenic mouse brain at 30 mg/kg, ip administered as single dose measured after 2 hrs by LC-MS/MS analysis; format: ADME, organism-based; conditions: read-out: Drug uptake
[21] = AUC in APPswe/PS1dE9 double mutant-transgenic mouse at 30 mg/kg, ip administered as single dose by LC-MS/MS analysis; format: ADME, organism-based; conditions: in vivo
[22] = Terminal half life in APPswe/PS1dE9 double mutant-transgenic mouse at 3 mg/kg, iv administered as single dose by LC-MS/MS analysis; format: ADME, organism-based; conditions: in vivo, read-out: beta t1/2 (converted)
[23] = Clearance in APPswe/PS1dE9 double mutant-transgenic mouse at 30 mg/kg, ip administered as single dose by LC-MS/MS analysis; format: ADME, organism-based; conditions: in vivo
SH-SY5Y [24] = assay: Effect on cell proliferation in human SH-SY5Y cells at 1 to 10 uM measured after 1 hr by MTT assay; format: ADME, cell-based
Mus musculus [25] = assay: Improvement in spatial memory impairment in APPswe/PS1dE9 double mutant-transgenic mouse model assessed as increase in retention latency time at 15 to 30 mg/kg, ip administered once daily for 12 weeks measured post-last dose by step-through passive avoidance test; format: functional, organism-based
Mus musculus [26] = assay: In vivo inhibition of […] phosphorylation in cortex of APPswe/PS1dE9 double mutant-transgenic mouse model at 30 mg/kg, ip administered once daily for 12 weeks measured post-last dose by Western blot analysis; format: functional, organism-based
Mus musculus [27] = assay: In vivo inhibition of JNK in APPswe/PS1dE9 double mutant-transgenic mouse model assessed as reduction in Tau phosphorylation at Ser235 residue in hippocampus at 30 mg/kg, ip administered once daily for 12 weeks measured post-last dose by Western blot analysis; format: functional, organism-based
[28] = Ratio of drug level in APPswe/PS1dE9 double mutant-transgenic mouse brain to plasma at 30 mg/kg, ip administered as single dose measured after 2 hrs by LC-MS/MS analysis; format: ADME, organism-based; conditions: read-out: BPR
[29] = Clearance in APPswe/PS1dE9 double mutant-transgenic mouse at 3 mg/kg, iv administered as single dose by LC-MS/MS analysis; format: ADME, organism-based; conditions: in vivo
[30] = Toxicity in APPswe/PS1dE9 double mutant-transgenic mouse model assessed as effect on swimming speed at 15 to 30 mg/kg, ip administered once daily for 12 weeks measured 48 hrs after training trial by morris water maze test; format: organism-based; conditions: in vivo
SH-SY5Y [31] = assay: Neuroprotective activity against amyloid beta (25 to 35 residues)-induced cell death in human SH-SY5Y cells assessed as increase in cell viability at 1 to 10 uM preincubated for 1 hr followed by amyloid beta (25 to 35 residues) addition and measured after 72 hrs by MTT assay; format: functional, cell-based
[32] = Toxicity in APPswe/PS1dE9 double mutant-transgenic mouse assessed as change in body weight at 15 to 30 mg/kg, ip administered once daily for 12 weeks and measured every week during compound dosing; format: organism-based; conditions: in vivo, 2016 h
[33] = molecular target: Mitogen-activated protein kinase 8 (Homo sapiens, UniProt P45983); assay: Inhibition of human JNK1alpha1 using ATF2 as substrate measured after 40 mins in presence of [gamma33P]ATP by scintillation counting analysis
Mitogen-activated protein kinase 8, sequence (P45983 whole entry): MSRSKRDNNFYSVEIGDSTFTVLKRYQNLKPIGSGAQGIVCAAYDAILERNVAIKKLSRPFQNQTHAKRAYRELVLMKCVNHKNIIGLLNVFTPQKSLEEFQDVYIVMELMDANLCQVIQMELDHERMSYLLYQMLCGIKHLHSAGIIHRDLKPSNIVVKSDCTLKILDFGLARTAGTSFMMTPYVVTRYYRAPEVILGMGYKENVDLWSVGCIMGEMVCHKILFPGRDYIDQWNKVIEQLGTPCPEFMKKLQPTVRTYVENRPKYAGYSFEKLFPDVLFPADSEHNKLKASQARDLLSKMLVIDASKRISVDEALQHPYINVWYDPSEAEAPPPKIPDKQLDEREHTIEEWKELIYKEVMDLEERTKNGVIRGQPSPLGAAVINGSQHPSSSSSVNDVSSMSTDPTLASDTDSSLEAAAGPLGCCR

Mitogen-activated protein kinase 10, sequence (P53779 whole entry): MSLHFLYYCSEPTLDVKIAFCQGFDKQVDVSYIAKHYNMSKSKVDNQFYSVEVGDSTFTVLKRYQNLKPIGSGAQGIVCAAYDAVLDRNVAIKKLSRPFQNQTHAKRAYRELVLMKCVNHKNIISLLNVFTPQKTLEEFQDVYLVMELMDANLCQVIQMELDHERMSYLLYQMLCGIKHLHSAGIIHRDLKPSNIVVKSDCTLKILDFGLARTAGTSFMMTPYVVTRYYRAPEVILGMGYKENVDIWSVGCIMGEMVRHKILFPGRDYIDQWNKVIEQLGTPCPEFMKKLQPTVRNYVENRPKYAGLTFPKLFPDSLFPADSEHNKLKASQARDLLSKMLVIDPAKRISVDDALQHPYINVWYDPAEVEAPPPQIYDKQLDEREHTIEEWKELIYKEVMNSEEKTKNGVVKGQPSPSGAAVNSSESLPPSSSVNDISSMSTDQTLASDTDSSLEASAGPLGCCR

**Q.** Which Activity (Mus musculus [1]) does the source give for `O=C1N/C(=N/c2ccccc2Cl)S/C1=C1\C(=O)Nc2ccc(F)cc21` here?
**A.** The Activity was “Dose-dependent effect”.

**Q.** What about the inhibition [2] of the same compound?
**A.** The inhibition was 99%.

**Q.** What about the inhibition (Mus musculus [3]) of the same compound?
**A.** Its inhibition is “Active”.

**Q.** And the Cmax [4]?
**A.** Its Cmax is 19200 ng/mL.

**Q.** What about the half-life [5] of the same compound?
**A.** Its half-life is 16.1 h.

**Q.** What about the half-life [6] of the same compound?
**A.** Its half-life is 0.35 h.

**Q.** And the concentration at 0.5 h [7]?
**A.** Its concentration at 0.5 h is 20600 ng/mL.

**Q.** And the Tmax [8]?
**A.** Its Tmax is 0.4 h.

**Q.** What about the bioavailability [9] of the same compound?
**A.** The bioavailability was 90.5%.

**Q.** What about the Kp at 0.5 h [10] of the same compound?
**A.** Its Kp at 0.5 h is 0.0024.

**Q.** What about the AUC [11] of the same compound?
**A.** Its AUC is 2120 ng·h/mL.

**Q.** What about the inhibition (Mus musculus [12]) of the same compound?
**A.** The inhibition was “Active”.

**Q.** What about the Activity (Mus musculus [13]) of the same compound?
**A.** Its Activity is “Active”.

**Q.** What about the MRT [14] of the same compound?
**A.** The MRT was 2.78 h.

**Q.** What about the Activity [15] of the same compound?
**A.** Its Activity is “Non-Toxic”.

**Q.** What about the MRT [16] of the same compound?
**A.** The MRT was 1.61 h.

**Q.** And the concentration at 8 h [17]?
**A.** Its concentration at 8 h is 30.7 ng/g.

**Q.** What about the inhibition (Mus musculus [18]) of the same compound?
**A.** Its inhibition is “Active”.

**Q.** And the inhibition (Mus musculus [19])?
**A.** The inhibition was “Active”.

**Q.** And the concentration at 2 h [20]?
**A.** The concentration at 2 h was 158 ng/g.

**Q.** What about the AUC [21] of the same compound?
**A.** Its AUC is 19200 ng·h/mL.

**Q.** What about the half-life [22] of the same compound?
**A.** The half-life was 8.83 h.

**Q.** What about the CL/F [23] of the same compound?
**A.** The CL/F was 26.5 mL/min/kg.

**Q.** And the Activity (SH-SY5Y [24])?
**A.** Its Activity is “Non-Toxic”.

**Q.** And the Activity (Mus musculus [25])?
**A.** Its Activity is “Active”.

**Q.** What about the inhibition (Mus musculus [26]) of the same compound?
**A.** Its inhibition is “Active”.

**Q.** And the inhibition (Mus musculus [27])?
**A.** The inhibition was “Active”.

**Q.** What about the Kp at 2 h [28] of the same compound?
**A.** Its Kp at 2 h is 0.135.

**Q.** What about the clearance [29] of the same compound?
**A.** The clearance was 24.2 mL/min/kg.

**Q.** What about the Activity [30] of the same compound?
**A.** The Activity was “Non-Toxic”.

**Q.** And the Activity (SH-SY5Y [31])?
**A.** Its Activity is “Active”.

**Q.** What about the Activity [32] of the same compound?
**A.** Its Activity is “Non-Toxic”.

**Q.** What about the pIC50 [33] of the same compound?
**A.** The pIC50 was < 4.00.
